Test results reported in patent publication US5187174A, “6'-deoxy-6'-halo-neplanocin A and its production” (Asahi Kasei Kogyo Kabushiki Kaisha, priority 1989, dated 1993).
In brackets after ≈: the same amount, converted by molar mass.

Experiments:
L5178Y cells = experiment: Growth inhibition activity against L5178Y cells; assay type: cell-based; conditions: Mus musculus, 48 hours, 37° C.
Method: 1. Growth inhibition activity against L5178Y cells:
A solution of each test compound is prepared by dissolving or suspending the compound in RRMI 1640 medium containing 10% bovine serum by ultrasonication. A cell suspension of L5178Y cells, 1.1×10^4 cells/ml, each suspension having a volume of 1.8 ml, is added to each test tube. A solution (0.2 ml) of the test compound hereinabove is added thereto and the medium is tightly sealed and incubated at 37° C. for 48 hours. After incubation, the number of cells is measured using a Coulter counter and the growth ratio of the cells is determined.

[1] = Resistance to adenosine deaminase; assay type: in vitro ADME, calf; conditions: bovine, pH 7.2, 25° C., read-out: Remaining Amount (%); for remaining at 0.5 h, 500 µM: 30 min.
Method: A solution 0.5 mM of each test sample is prepared by dissolving the test sample in 0.05M Tris-HCl buffer (pH 7.2). Adenosine deaminase (calf intestine, 400 U/ml glycerin, Boehringer 102091) is diluted ten times with 0.05M Tris-HCl buffer (pH 7.2) to prepare an adenosine deaminase solution.
0.5 ml of each sample solution is mixed with 10 μl of adenosine deaminase solution. The mixtures are allowed to stand in a water bath at 25° C., and 4 μl samples thereof are pipetted off after 1, 10, 20 and 30 minutes. The remaining sample is measured by HPLC under the following conditions:
Column: Licrosorb RP-18-5
Elution solvent: Control; 15% methanol
Elution speed: 1.0 ml/min.

cells = conditions: in words; Ref. 1; cited from earlier work
adenosine deaminase = conditions: in words; thought to occur, Ref. 1; cited from earlier work

For `Nc1ncnc2c1ncn2C1C=C(CBr)C(O)C1O` (stereo not shown) [Compound (1) X = Br, 6'-deoxy-6'-bromoneplanocin A], the IC50 (L5178Y cells) was 0.2 µg/mL (≈ 0.613 µM), the remaining at 10 min, 500 µM [1] was 98% and the remaining at 20 min, 500 µM [1] was 97%. It also gave a remaining at 0.5 h, 500 µM [1] of 97%.
With `Nc1ncnc2c1ncn2C1C=C(CI)C(O)C1O` (stereo not shown) [Compound (1) X = I, 6'-deoxy-6'-iodoneplanocin A] the IC50 (L5178Y cells) was 0.4 µg/mL (≈ 1.07 µM), the remaining at 10 min, 500 µM [1] was 97% and the remaining at 20 min, 500 µM [1] was 96%. For the same compound, the remaining at 0.5 h, 500 µM [1] was 96%.
Work on `Nc1ncnc2c1ncn2C1C=C(CF)C(O)C1O` (stereo not shown) [Compound (1) X = F, 6'-deoxy-6'-fluoroneplanocin A] yielded an IC50 (L5178Y cells) of 1.1 µg/mL (≈ 4.15 µM), a remaining at 10 min, 500 µM [1] of 99% and a remaining at 20 min, 500 µM [1] of 98%. The remaining at 0.5 h, 500 µM [1] was 98%.
For `Nc1ncnc2c1ncn2[C@@H]1C=C(CO)[C@@H](O)[C@H]1O` [Neplanocin A], the “cytotoxic activity in vitro” value (cells) is listed as “has cytotoxic activity in vitro”, the IC50 (L5178Y cells) is listed as 0.2 µg/mL (≈ 0.76 µM) and the “conversion by adenosine deaminase in vivo” value (adenosine deaminase) is listed as “rapid conversion to an inert deamination-type compound (neplanocin D)”. It also gave a remaining at 10 min, 500 µM [1] of 6%, a remaining at 20 min, 500 µM [1] of 0.4% and a remaining at 0.5 h, 500 µM [1] of 0%.
In the case of `Nc1ncnc2c1ncn2C1C=C(CCl)C(O)C1O` (stereo not shown) [Compound (1) X = Cl, 6'-deoxy-6'-chloroneplanocin A], the IC50 (L5178Y cells) is reported as 0.3 µg/mL (≈ 1.06 µM), the remaining at 10 min, 500 µM [1] is reported as 101% and the remaining at 20 min, 500 µM [1] is reported as 99%. The remaining at 0.5 h, 500 µM [1] was 102%.
